{
  "source": "patent US7381733B2",
  "about": "“Tropane derivatives having dopamine reuptake inhibitor activity for the treatment of ischemic diseases” (Neurosearch A/S, priority 2001, dated 2008)",
  "tested_on": "TH positive cells in the substantia nigra",
  "experiment": "Protection of the substantia nigra after transient global ischaemia in gerbils (TH positive cell count)",
  "format": "in vivo, Mongolian gerbils",
  "details": "2 mg/kg i.p. 2 minutes after end of occlusion",
  "experimental": "Protection of the Substantia Nigra after Transient Global Ischaemia in Gerbils\nIn this experiment, the neuroprotective effect of a test compound is assessed in an animal model of transient global ischaemia.\nMethod: In halothane anaesthetised gerbils, right and left carotid arteries are located and occluded for 10 minutes. Animals are kept at normal body temperature before and after the operation using heating lamps. During surgery, the gerbils are placed on heating pads, the body temperature is controlled and maintained at 37±0.5° C. The test compound is dosed at specified time points after the ischaemic insult, either i.v., i.p., s.c. or p.o.\nFourteen days later, the animals are sacrificed, brains removed and cooled to −70° C. Thereafter, the brains are sectioned in 20 μm thick sections through the substantia nigra region. Sections are stained for tyroxine hydroxylase (TH+) expression using immunohistochemistry. The number of TH+ cells in the sections is counted and the total number of TH+ cells in the substantia nigra is calculated by means of stereology. […]\nAfter 14 days, the animals were sacrificed and the brains sectioned. […] The total number of TH positive cells after ischemia or in control animals were determined by means of stereological cell counting.",
  "data": [
    {"smiles": "CON=C[C@@H]1[C@@H](c2ccc(Cl)c(Cl)c2)CC2CC[C@H]1N2C", "note": "[test compound, (1R,2R,3S)-3-(3,4-dichlorophenyl)-tropane-2-O-methyl-aldoxime]", "values": [
      {"measurement": "Mean number of cells (total number of TH positive cells in the substantia nigra)", "setting": "10 min bilateral carotid artery occlusion, counted after 14 days by stereology, control 9531, ischemia 7510", "result": 10615, "unit": "cells"},
      {"measurement": "number of surviving TH positive cells in the substantia nigra after ischemia, compared with untreated ischemia", "setting": "10 min carotid artery occlusion, 14 days", "result": "apparently increased"}
    ]}
  ]
}
